Laboratory results reported in patent US20030186948A1, “O-linked N-acetylglucosamine pathway in the pathogenesis of neurodegeneration and diabetes” (priority 2000, published 2003).
Where a SMILES comes first, the peptide text is derived from it. [ ]: non-standard residue; d: D form. The star is where a group is joined. Nle = CCCC[C@H](N)C(=O)O; Cbz = O=C(OCc1ccccc1)*

Assays:
[1] = system: Sp1 proteasome degradation; assay: Sp1 depletion in cells under low glucose and cAMP accumulation; type: cell-based
Description: This study therefore correlated the stability of Sp1 against proteasome degradation with the level of Sp1 modification by O-GleNAc.
The depletion of O-GlcNAc on Sp1 and other proteins appeared to have resulted both from the glucose starvation and from the cAMP.

[2] = molecular target: T1, proteasome chymotryptic activity in NRK nuclear extracts (Rattus norvegicus, UniProt P28075); assay: suc-LLVY-AMC proteasome peptidase assay in NRK nuclear extracts; type: biochemical; details: cells treated before extract preparation; data not shown
T1 construct: endogenous in cells; host or cells: NRK cells, nuclear extract
T1 sequence (P28075 60-263): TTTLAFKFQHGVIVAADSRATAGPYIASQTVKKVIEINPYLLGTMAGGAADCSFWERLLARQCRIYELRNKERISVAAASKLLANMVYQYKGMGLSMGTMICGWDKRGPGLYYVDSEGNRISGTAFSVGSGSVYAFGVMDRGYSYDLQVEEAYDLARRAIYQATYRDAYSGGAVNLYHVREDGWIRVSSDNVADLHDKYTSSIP
Method: The chymotryptic activity of the proteasome itself can be measured using short synthetic peptides. The peptide, N-succinyl-Leu-Leu-Val-Tyr-7-amido-4-methylcoumarin (suc-LLVY-AMC) (Sigma), is coupled to a fluorescent indicator, and the cleavage can be monitored and quantitated by a fluorometer. […] The reaction is carried out in a 96 well plate.
If the chymotryptic cleavage has occurred, the fluorescence can b e excited with UV light at 365 nm and detected by a CCDdigital camera coupled to a computer. Because the LLVY peptide can be cleaved by any enzyme having chymotryptic activity, cleavage is not specifically proteasome-dependent. However, if cleavage is blocked by a wide spectrum proteasome inhibitors, then it is reasonable to deduce that the detected fluorescence is proteasome-dependent.
Proteasome peptidase activity in activated NRK nuclear extracts was examined with this assay. The activity could be inhibited by preincubating the extract with known proteasome inhibitors indicating the fluorescent signal derives from authentic proteasome activity (FIG. 2). […] When the extract was exposed briefly to GST-OGT plus UDP-GlcNAc and then the O-GlcNAc transferase was removed, the chymotryptic activity was eliminated. GST had no effect on the proteasome activity. […] The chymotryptic activity of the proteasome was stimulated by this treatment.

[3] = system: p135 O-glycosylation in pancreatic islets; assay: Pancreatic islet p135 O-glycosylation (RL2 immunoprecipitation and Western blot); type: cell-based, rat; details: for inhibition of p135 O-glycosylation: comparison with NOC-15, FIG. 12
Method: Rat pancreatic islets were isolated, counted into tubes and pre-incubated with 3 mM glucose. Following pre-incubation, islets were stimulated with 3 mM glucose, 5 mM STZ, 5 mM NOC-15, or 5 mM DPTA. NOC-15 ((Z)-1-[N-(3-Ammoniopropyl)-N-(n-propyl)amino]diazen-ium-1,2-diolate, also known as PAPA NONOate) is a structural analog of […] (FIG. 9). At the end of the experiment, O-glycosylated proteins were immunoprecipitated with RL2 antibody, which binds to O-linked N-acetylglucosamine. Immunoprecipitated proteins were run out on a 6.5% SDS-PAGE gel and the proteins were then transferred to a nitrocellulose blot. The blot was then probed with RL2 antibody, which was detected by the ECL method. The blot was exposed to X-ray film and the film was developed and photographed. […] The structure and action of NOC-15 can thus be used as a basis to synthesize drugs that can be used to prevent and/or treat diabetes.

[4] = molecular target: T2, brain proteasome LLVY chymotryptic activity (Rattus norvegicus, UniProt P28075); assay: suc-LLVY-AMC cleavage in brain extract of streptozotocin-injected animals; type: in vivo
T2 construct: Brain extract was prepared from animals injected with or without streptozotocin; from tissue; host or cells: brain extract
T2 sequence (P28075 60-263): T1 sequence (P28075 60-263)
Method: To determine whether STZ-injected animals display a n alteration in proteasomal function, the cleavage of the peptide LLVY was examined following streptozotocin treatment. Brain extract was prepared from animals injected with or without streptozotocin, and suc-LLVY-AMC was added to the extract.

[5] = system: hippocampal neurons; assay: Intracerebroventricular streptozotocin in TGFα-βgal mice: p53 staining and reporter function in brain; type: in vivo, mouse
Method: A number of research groups have developed techniques of injecting streptozotocin into the cerebral ventricles (Lannert & Hoyer, 1998; Weinstock et al., 2001; Sharma & Gupta, 2002). To determine if treatment with streptozotocin causes p53 accumulation in the brain, freshly prepared streptozotocin can be injected stereotactically into the cerebral ventricles, and the brain tissues can then be stained for the presence of p53. When the control TGFα-βgal mice were injected with vehicle alone, no p53 was detected 16 hours post injection. […] STZ was also injected into TGFα-βgal mice with a homozygous knock-out of p53.
The brains slices from similar mice receiving icv injections 36 hours prior to sacrifice were examined for TGFα-βgal reporter function.

[6] = system: pancreatic islets; assay: TUNEL assay and p53 staining of pancreatic slices from STZ-treated rats; type: in vivo, rat
Method: The effect of streptozotocin on p53 accumulation in the islets was determined using immunohistochemistical analysis of pancreatic slices from rats treated for various times with STZ. […] This assay has been described thoroughly (Liu et al., 2000). The TUNEL positivity peaks at about 22-24 hours after the administration of STZ. When the tissue was stained with p53 antibodies, it was noted that p53 accumulation preceded the apoptosis. […] This corresponds with the observation the O-GlcNAc transferase is much more highly expressed in the endocrine pancreas. STZ also is toxic to the somatotropes in the pituitary where O-GlcNAc transferase is highly expressed. Thus, it is predicted there where O-GlcNAc transferase is abundant, STZ-sensitivity should be seen.

[7] = system: hippocampal neurons (CA1 region); assay: RL2 immunostaining of brain O-GlcNAc after cerebroventricular streptozotocin; type: in vivo, rat; details: 6 hours after injection
Method: To determine if streptozotocin causes hippocampal neuron O-GlcNAc accumulation, the drug was delivered stereotactically to the cerebroventricles of a rat brain. The brain tissues were then stained for O-GlcNAc content using the O-GlcNAc-specific monoclonal antibody, RL2. Staining of rat tissue by this mouse antibody is easier because detection is not hampered by endogenous mouse IgG. Staining is blocked by preincubation of RL2 with GlcNAc, but not GalNAc or glucosamine (needs acetylation) or other sugars. The bound RL2 can be detected by fluorescent-tagged antimouse IgG antibody. […] At 6 hours post-injection, the animals were sacrificed and brain O-GlcNAc content was detected with RL2 immunostaining as previously described (Liu et al., 2000).

[8] = system: TGFα promoter β-gal reporter in pancreatic β-cells; assay: TGFα-βgal reporter activity in islets after streptozotocin injection; type: in vivo, mouse; details: TGFα-βgal reporter mice, dose that causes β-cell apoptosis
Method: The TGFα promoter was placed in front of the β-galactosidase reporter gene and developed two lines of transgenic mice. The line with the best reporter activity was used in all subsequent experiments. Tissue expression of the reporter was detected as follows: tissues were quickly excised, cut into pieces, and fixed in 4% paraformaldehyde (made in PBS, pH 7.5) for 30 min at 4° C. Tissue sections were rinsed three times 10 min each in ice-cold PBS, immersed in freshly prepared staining solution [10 ml solution of PBS (pH 7.4) containing 2 mM MgCl2, 0.01% sodium deoxycholate, 0.02% NP40, 0.1% X-gal dissolved in dimethylformamide, 82.5 mg potassium ferricyanide, and 94.5 mg potassium ferrocyanide], and incubated overnight at 37° C. The reaction was stopped by rinsing the organs in PBS. Sampleswere stored in 70% ethanol at 4° C. […] For example, β-gal activity was detected in the pituitary and in some neurons, sites where native TGFα had been detected before. […] Of particular interest in this regard was the absence of staining in the exocrine and endocrine pancreas.
Because p53 accumulates in the islet in response to STZ, and TGFα transcription is driven by p53, it is reasonable to examine the TGFα reporter mice for TGFα promoter activation in the islets. Mice were injected with streptozotocin at the dose that cause β-cell apoptosis. […]

[9] = system: proteasome processing of Sp1 in nuclear extract; assay: Sp1 degradation by proteasome in nuclear extract; type: biochemical; details: activated nuclear extract
[10] = system: O-GlcNAc modification of p135 in isolated β-cells; assay: O-GlcNAc modification of p135 in isolated β-cells treated with alloxan; type: cell-based
Method: (§1) Another chemical means of inhibiting O-GlcNAc transferase has been discovered. Another long known diabetogenic drug, alloxan (ALX) (FIG. 8 above), is a uracil analog. Injections of this drug into laboratory rats also causes a relatively specific death of the pancreatic β-cells. […] Purified recombinant O-GlcNAc transferase is inhibited half-maximally by 0.1 mM alloxan, compatible with the dose of this drug that causes diabetes. These studies indicate that an analog of UDP-GlcNAc that mimics the uracil moiety like alloxan, might be an index compound for the discovery of other UDP-GlcNAc like molecules that inhibit the O-GlcNAc transferase.

[11] = molecular target: T3, Purified recombinant O-GlcNAc transferase (Homo sapiens, UniProt O15294); assay: Inhibition of purified recombinant O-GlcNAc transferase; type: biochemical
T3 sequence (O15294 1-1046): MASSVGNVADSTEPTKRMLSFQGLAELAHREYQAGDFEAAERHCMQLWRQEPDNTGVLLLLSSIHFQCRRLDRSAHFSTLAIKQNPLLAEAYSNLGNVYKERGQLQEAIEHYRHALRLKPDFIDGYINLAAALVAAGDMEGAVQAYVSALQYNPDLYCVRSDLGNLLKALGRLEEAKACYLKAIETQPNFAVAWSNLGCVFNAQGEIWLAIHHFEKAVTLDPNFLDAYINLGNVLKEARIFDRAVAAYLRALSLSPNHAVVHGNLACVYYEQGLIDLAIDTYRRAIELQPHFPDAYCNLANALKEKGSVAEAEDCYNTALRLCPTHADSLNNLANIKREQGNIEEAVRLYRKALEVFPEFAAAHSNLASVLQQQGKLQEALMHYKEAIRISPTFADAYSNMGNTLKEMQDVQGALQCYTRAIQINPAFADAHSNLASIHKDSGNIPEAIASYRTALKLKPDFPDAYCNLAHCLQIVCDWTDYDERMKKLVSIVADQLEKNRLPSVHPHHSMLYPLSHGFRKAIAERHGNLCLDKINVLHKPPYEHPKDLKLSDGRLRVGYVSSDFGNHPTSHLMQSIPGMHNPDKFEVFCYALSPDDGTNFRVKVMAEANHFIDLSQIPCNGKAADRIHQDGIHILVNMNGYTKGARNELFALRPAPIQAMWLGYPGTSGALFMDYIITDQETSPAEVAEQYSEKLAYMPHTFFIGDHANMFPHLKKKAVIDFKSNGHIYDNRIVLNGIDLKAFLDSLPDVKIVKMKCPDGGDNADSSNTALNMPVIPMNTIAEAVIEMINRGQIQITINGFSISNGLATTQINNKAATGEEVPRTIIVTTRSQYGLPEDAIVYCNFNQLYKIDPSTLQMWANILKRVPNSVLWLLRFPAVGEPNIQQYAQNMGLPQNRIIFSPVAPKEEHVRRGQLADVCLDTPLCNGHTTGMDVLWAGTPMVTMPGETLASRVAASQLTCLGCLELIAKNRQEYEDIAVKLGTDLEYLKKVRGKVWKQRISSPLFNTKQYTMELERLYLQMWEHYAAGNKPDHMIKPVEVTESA
Method: as §1

CC(=O)N[C@@H](CSC(=O)[C@]1([C@@H](O)C(C)C)NC(=O)[C@H](C)[C@@H]1O)C(=O)O [lactacystin]
loss of Sp1 under low glucose and cAMP accumulation [1]: blocked | proteasome chymotryptic activity of extract from treated cells [2]: does not display this activity

CCCN(CCCN)/[N+]([O-])=N/O [NOC-15, (Z)-1-[N-(3-Ammoniopropyl)-N-(n-propyl)amino]diazen-ium-1,2-diolate]
inhibition of STZ-induced p135 O-glycosylation ([3]; rat islets, 5 mM streptozotocin and 5 mM NOC-15): almost completely inhibiting

NCCCN(CCCN)/[N+]([O-])=N/O [DPTA]
inhibition of p135 O-glycosylation [3]: do not inhibit

N[C@H]1C(O)O[C@H](CO)[C@@H](O)[C@@H]1O (stereo partly shown) [glucosamine]
Sp1 degradation after glucose starvation and forskolin ([1]; cells provided glucosamine): degradation decreased | proteasome chymotryptic activity of extract from treated cells [2]: does not display this activity

CC(C)[C@H](O)[C@@]12NC(=O)[C@H](C)[C@@H]1OC2=O [β-lactone]
suc-LLVY-AMC fluorescence in brain extract ([4]; inhibitor added to extract): inhibited

CC(C)C[C@@H](C=O)NC(=O)[C@H](CC(C)C)NC(=O)[C@H](CC(C)C)NC(=O)OCc1ccccc1 [MG132] (Cbz-Leu-Leu-Leu-aldehyde)
loss of Sp1 under low glucose and cAMP accumulation [1]: blocked

CN(N=O)C(=O)N[C@H]1C(O)O[C@H](CO)[C@@H](O)[C@@H]1O (mixture of isomers) [streptozotocin]
p53 by immunohistochemistry in neurons of the hippocampus ([5]; 16 hours post icv injection): readily detectable | TGFα-βgal reporter function in hippocampal neurons ([5]; icv injection 36 hours prior to sacrifice, wildtype TGFα-βgal mice): show reporter function | effect on p135 O-glycosylation ([3]; rat islets, 5 mM): stimulated | p53 accumulation in islets ([6]; at 16 hours): well established | time of peak TUNEL positivity after administration ([6]; rat islets): 22 to 24 h | apoptosis in islets by TUNEL assay ([6]; rats treated with STZ): causes apoptosis | LLVY chymotryptic activity in the brains of treated animals ([4]; brain extract, preliminary results): marked inhibition | O-GlcNAc signal in hippocampal neurons (RL2) [7]: marked increase | β-gal reporter activity in pancreas [8]: appeared in the β-cells but not exocrine pancreas

NCCCNCCCCN(CCCN)/[N+]([O-])=N/O [Spermine NONOate]
inhibition of p135 O-glycosylation [3]: do not inhibit

CC(=O)N[C@H]1[C@@H](OP(=O)(O)OP(=O)(O)OC[C@H]2O[C@@H](n3ccc(=O)[nH]c3=O)[C@H](O)[C@@H]2O)O[C@H](CO)[C@H](O)[C@@H]1O [UDP-GalNAc]
effect on the inhibitory effect of catalytically active O-GlcNAc transferase on Sp1 processing [9]: partially blocked

CCCC[C@@H](C=O)NC(=O)[C@H](CC(C)C)NC(=O)[C@H](CC(C)C)NC(C)=O [LLnL] (Ac-Leu-Leu-[Nle]-aldehyde)
loss of Sp1 under low glucose and cAMP accumulation [1]: blocked

O=C1NC(=O)C(=O)C(=O)N1 [alloxan]
increase in the O-GlcNAc modification of p135 in response to glucose or glucosamine [10]: fail to display an increase | IC50 [11]: 100 µM
